According to US20260027068A1, “METHODS OF ADM[…]-KETAMINE” (Perception Neuroscience, Inc., priority 2022, published 2026):

Tested on: subjects with TRD
Assay: Adverse events (TEAEs, SAEs) in the TRD study
Assay type: in vivo, human
Conditions: for Number of subjects with TEAE, Mild / Number of subjects with TEAE, Moderate / Number of subjects with TEAE, Severe / Percent of subjects with TEAE, Mild / Percent of subjects with TEAE, Moderate / Percent of subjects with TEAE, Severe: maximum severity
Excerpt: The definitions of an AE and SAE can be found in Section F. AEs were reported by the subject (or, when appropriate, by a caregiver, surrogate, or the subject's legally authorized representative). The Investigator and any designees were responsible for detecting, documenting, and recording events that meet the definition of an AE or SAE and remained responsible for following up AEs that were serious, considered related to the study treatment or study procedures, or that caused the subject to discontinue from the study.
All AEs were collected from the signing of the ICF until the second follow-up visit (Day 15) at the time points specified in the Schedule of Activities (Section C). Medical occurrences that began before the start of study treatment but after obtaining informed consent were recorded on the Medical History/Current Medical Conditions section of the CRF, not the AE section. All SAEs were recorded and reported to the Sponsor or designee within 24 hours as indicated in Section F. The Investigator submitted any updated SAE data to the Sponsor or designee within 24 hours of it being available. Investigators were not obligated to actively seek AE or SAE information after the conclusion of study participation. However, if the Investigator learns of any SAE, including a death, at any time after a subject has been discharged from the study, and he/she considers the event to be reasonably related to the study treatment or study participation, the Investigator must promptly notify the Sponsor or designee. The method of recording, evaluating, and assessing the causality of AEs and SAEs and the procedures for completing and transmitting SAE reports are provided in Section F.
An AE is any untoward medical occurrence in a patient or subject, temporally associated with the use of study treatment, whether or not considered related to the study treatment. An AE can therefore be any unfavorable and unintended sign (including an abnormal laboratory finding), symptom, or disease (new or exacerbated) temporally associated with the use of study treatment.
If an event is not an AE per the definition above, then it cannot be an SAE even if serious conditions are met (e.g., hospitalization for signs/symptoms of the disease under study). A Serious Adverse Event (SAE) is defined as any untoward medical occurrence that, at any dose: a) results in death; b) is life-threatening; c) requires inpatient hospitalization or prolongation of existing hospitalization; d) results in persistent disability/incapacity; or e) is a congenital anomaly/birth defect. The term “life-threatening” in the definition of “serious” refers to an event in which the subject was at risk of death at the time of the event. […] In general, hospitalization signifies that the subject has been detained (usually involving at least an overnight stay) at the hospital or emergency ward for observation and/or treatment that would not have been appropriate in the physician's office or outpatient setting. Complications that occur during hospitalization are AEs. If a complication prolongs hospitalization or fulfills any other serious criteria, the event is serious. When in doubt as to whether “hospitalization” occurred or was necessary, the AE should be considered serious. […] The term disability means a substantial disruption of a person's ability to conduct normal life functions.
(MedDRA; Version 23.0 or higher). Treatment-emergent adverse events (TEAEs) are AEs with onset or worsening after the start of study treatment. The AE summaries will be primarily based on TEAEs. The number and percentage of subjects with TEAEs will be summarized by treatment group, system organ class, and preferred term for all TEAEs, treatment-related TEAEs, SAEs, serious TEAEs, severe TEAEs, TEAEs of special interest, and all TEAEs leading to study drug discontinuation. All TEAEs will be further summarized by maximum severity and causality. The TEAEs of special interest will be identified in the SAP. […]

CN[C@@]1(c2ccccc2Cl)CCCCC1=O.Cl [R(−)-ketamine, (2R)-2-(2-chlorophenyl)-2-(methylamino)cyclohexan-1-one]
Number of subjects with Any adverse events (AE) (30 mg (n = 33)): 11
Number of subjects with Serious TEAEs resulting in treatment discontinuation (30 mg (n = 33)): 0
Number of subjects with TEAE with outcome of death (30 mg (n = 33)): 0
Number of subjects with TEAEs of COVID-19 (30 mg (n = 33)): 0
Number of subjects with TEAEs resulting in discontinuation from study (30 mg (n = 33)): 0
Number of subjects with TEAEs resulting in treatment discontinuation (30 mg (n = 33)): 0
Number of subjects with Treatment-emergent SAE, Mild (30 mg (n = 33)): 0
Number of subjects with Treatment-emergent SAE, Moderate (30 mg (n = 33)): 0
Number of subjects with Treatment-emergent SAE, Severe (30 mg (n = 33)): 0
Number of subjects with Treatment-emergent adverse events (TEAE) (30 mg (n = 33)): 11
Number of subjects with Treatment-emergent serious adverse events (SAE) (30 mg (n = 33)): 0
Number of subjects with Treatment-related TEAEs (30 mg (n = 33)): 10
Number of subjects with Treatment-related and severe TEAEs (30 mg (n = 33)): 0
Number of subjects with Treatment-related treatment-emergent SAEs (30 mg (n = 33)): 0
Percent of subjects with Any adverse events (AE) (30 mg (n = 33)): (33) %
Percent of subjects with Serious TEAEs resulting in treatment discontinuation (30 mg (n = 33)): (0) %
Percent of subjects with TEAE with outcome of death (30 mg (n = 33)): (0) %
Percent of subjects with TEAEs of COVID-19 (30 mg (n = 33)): (0) %
Percent of subjects with TEAEs resulting in discontinuation from study (30 mg (n = 33)): (0) %
Percent of subjects with TEAEs resulting in treatment discontinuation (30 mg (n = 33)): (0) %
Percent of subjects with Treatment-emergent SAE, Mild (30 mg (n = 33)): (0) %
Percent of subjects with Treatment-emergent SAE, Moderate (30 mg (n = 33)): (0) %
Percent of subjects with Treatment-emergent SAE, Severe (30 mg (n = 33)): (0) %
Percent of subjects with Treatment-emergent adverse events (TEAE) (30 mg (n = 33)): (33) %
Percent of subjects with Treatment-emergent serious adverse events (SAE) (30 mg (n = 33)): (0) %
Percent of subjects with Treatment-related TEAEs (30 mg (n = 33)): (30) %
Percent of subjects with Treatment-related and severe TEAEs (30 mg (n = 33)): (0) %
Percent of subjects with Treatment-related treatment-emergent SAEs (30 mg (n = 33)): (0) %
Number of subjects with TEAE, Mild (30 mg (n = 33)): 7
Number of subjects with TEAE, Moderate (30 mg (n = 33)): 4
Number of subjects with TEAE, Severe (30 mg (n = 33)): 0
Percent of subjects with TEAE, Mild (30 mg (n = 33)): (21) %
Percent of subjects with TEAE, Moderate (30 mg (n = 33)): (12) %
Percent of subjects with TEAE, Severe (30 mg (n = 33)): (0) %
Serious adverse events (SAEs) (30 mg or 60 mg single IV infusion): no serious adverse events
Number of subjects with Any adverse events (AE) (60 mg (n = 35)): 19
Number of subjects with Serious TEAEs resulting in treatment discontinuation (60 mg (n = 35)): 0
Number of subjects with TEAE with outcome of death (60 mg (n = 35)): 0
Number of subjects with TEAEs of COVID-19 (60 mg (n = 35)): 0
Number of subjects with TEAEs resulting in discontinuation from study (60 mg (n = 35)): 0
Number of subjects with TEAEs resulting in treatment discontinuation (60 mg (n = 35)): 0
Number of subjects with Treatment-emergent SAE, Mild (60 mg (n = 35)): 0
Number of subjects with Treatment-emergent SAE, Moderate (60 mg (n = 35)): 0
Number of subjects with Treatment-emergent SAE, Severe (60 mg (n = 35)): 0
Number of subjects with Treatment-emergent adverse events (TEAE) (60 mg (n = 35)): 18
Number of subjects with Treatment-emergent serious adverse events (SAE) (60 mg (n = 35)): 0
Number of subjects with Treatment-related TEAEs (60 mg (n = 35)): 16
Number of subjects with Treatment-related and severe TEAEs (60 mg (n = 35)): 2
Number of subjects with Treatment-related treatment-emergent SAEs (60 mg (n = 35)): 0
Percent of subjects with Any adverse events (AE) (60 mg (n = 35)): (54) %
Percent of subjects with Serious TEAEs resulting in treatment discontinuation (60 mg (n = 35)): (0) %
Percent of subjects with TEAE with outcome of death (60 mg (n = 35)): (0) %
Percent of subjects with TEAEs of COVID-19 (60 mg (n = 35)): (0) %
Percent of subjects with TEAEs resulting in discontinuation from study (60 mg (n = 35)): (0) %
Percent of subjects with TEAEs resulting in treatment discontinuation (60 mg (n = 35)): (0) %
Percent of subjects with Treatment-emergent SAE, Mild (60 mg (n = 35)): (0) %
Percent of subjects with Treatment-emergent SAE, Moderate (60 mg (n = 35)): (0) %
Percent of subjects with Treatment-emergent SAE, Severe (60 mg (n = 35)): (0) %
Percent of subjects with Treatment-emergent adverse events (TEAE) (60 mg (n = 35)): (51) %
Percent of subjects with Treatment-emergent serious adverse events (SAE) (60 mg (n = 35)): (0) %
Percent of subjects with Treatment-related TEAEs (60 mg (n = 35)): (46) %
Percent of subjects with Treatment-related and severe TEAEs (60 mg (n = 35)): (6) %
Percent of subjects with Treatment-related treatment-emergent SAEs (60 mg (n = 35)): (0) %
Number of subjects with TEAE, Mild (60 mg (n = 35)): 9
Number of subjects with TEAE, Moderate (60 mg (n = 35)): 7
Number of subjects with TEAE, Severe (60 mg (n = 35)): 2
Percent of subjects with TEAE, Mild (60 mg (n = 35)): (26) %
Percent of subjects with TEAE, Moderate (60 mg (n = 35)): (20) %
Percent of subjects with TEAE, Severe (60 mg (n = 35)): (6) %
